Test results from patent US20210221848A1, “POLYMYXIN DERIVATIVES AND THEIR USE IN COMBINATION THERAPY TOGETHER WITH DIFFERENT ANTIBIOTICS” (priority 2014, published 2021).
In brackets after ≈: the same amount, converted by molar mass. Where two headings read alike, the source gives them in different places. Bridge positions count the residues as written; N and C are the ends. Square brackets hold non-standard residues; d marks the D form. Peptide text beside a SMILES is read from it. * marks the point of attachment. aThr = C[C@H](O)[C@H](N)C(=O)O; X2 = CC(C)CN1CCNC[C@H]1C(=O)*; Dab = NCC[C@H](N)C(=O)O

Experiments:
E. coli [1] = details: absence of a second agent, Table 6B
P. aeruginosa [2] = details: absence of a second agent, Table 6B
[3] = system: E. coli strains with elevated MICs to Polymyxin B; assay: MIC against strains with elevated MICs to Polymyxin B; format: cell-based, Escherichia coli; details: Table 6D; for MIC E. coli 058: strain 058, elevated MIC to Polymyxin B; for MIC E. coli 059: strain 059, elevated MIC to Polymyxin B; for MIC E. coli 060: strain 060, elevated MIC to Polymyxin B; for MIC E. coli 061: strain 061, elevated MIC to Polymyxin B
In short: (§1)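 Values are modal MICs where compounds were tested repeatedly, otherwise the lower of duplicates agreeing within 2-fold, with greater variation rejected. Inoculum: isolated colonies from 18-24 h Mueller-Hinton agar, suspended directly to 0.5 McFarland.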

[4] = system: A. baumanii strains with elevated MICs to Polymyxin B; assay: as above; format: cell-based, Acinetobacter baumannii; details: Table 6D; for MIC A. baumannii 053: strain 053, elevated MIC to Polymyxin B; for MIC A. baumannii 056: strain 056, elevated MIC to Polymyxin B; for MIC A. baumannii 068: strain 068, elevated MIC to Polymyxin B; for MIC A. baumannii 070: strain 070, elevated MIC to Polymyxin B
In short: as §1

[5] = system: Pseudomonas aeruginosa ATCC 27853; format: in vivo
Protocol: Groups of 7 male neutropenic specific-pathogen-free CD-1 mice weighing 21.5-27.5 g were used. On Day 0, animals were infected with 0.04 mL inoculum by intranasal instillation into mouse nostrils and were kept in an upright position on a string rack for ˜10 min post-infection. […] At 2 h, the CFU count was determined from 3 mice and the remaining mice (7 per test compound groups) were treated with a subcutaneous injection of the drug at +2, 6 and 10 hr post-infection. Test compounds and the comparator polymyxin B were administered at four concentrations (2.6, 8.6, 17.2 and 25.8 mg/kg free base). The vehicle control group (7 mice) was treated with 0.9% saline for injection at 2, 6 and 10 h post-infection.
Sixteen hours after infection, the mice were euthanized humanely. The lungs of each animal were harvested, homogenized and quantitatively cultured onto CLED agar for CFU determination. Decrease of the total CFU compared to control counts at 16 h post-infection was determined for each dose group.
The in vivo efficacy of 4 compounds of the invention (D25, D36, D42 and D50) was evaluated in a mouse lung infection model of P. aeruginosa ATCC 27853. The model was setup as described above with the exception that groups of up to 8 mice were inoculated through intranasal instillation of ˜2.5×10^6 CFUs of P. aeruginosa isolate ATCC 27853 (1.0×10^5 CFU/lung). Test compounds were administered at two concentrations (equivalent to 4.3 and 17.2 mg/kg free base). Three dose levels of polymyxin B sulfate were used as comparator (equivalent to 4.3, 8.6 and 17.2 mg/kg free base).

[6] = system: P. aeruginosa strains with elevated MICs to Polymyxin B; assay: MIC against strains with elevated MICs to Polymyxin B; format: cell-based, Pseudomonas aeruginosa; details: Table 6D; for MIC P. aeruginosa 065: strain 065, elevated MIC to Polymyxin B; for MIC P. aeruginosa 066: strain 066, elevated MIC to Polymyxin B; for MIC P. aeruginosa 067: strain 067, elevated MIC to Polymyxin B
In short: as §1

[7] = system: K. pneumoniae strains with elevated MICs to Polymyxin B; assay: as above; format: cell-based, Klebsiella pneumoniae; details: Table 6D; for MIC K. pneumoniae 062: strain 062, elevated MIC to Polymyxin B; for MIC K. pneumoniae 063: strain 063, elevated MIC to Polymyxin B; for MIC K. pneumoniae 064: strain 064, elevated MIC to Polymyxin B; for MIC K. pneumoniae 655: strain 655, elevated MIC to Polymyxin B
In short: as §1

K. pneumoniae [8] = details: for MIC, K. pneumoniae ATCC 4352 / MIC, K. pneumoniae ATCC BAA-2146: absence of a second agent, Table 6B
A. baumannii [9] = details: absence of a second agent, Table 6B
A. baumannii [10] = assay: MIC in 1:1 (wt:wt) combination with Rifampicin; format: cell-based, Acinetobacter baumannii; details: A. baumannii 053; 1:1 (wt:wt) with Rifampicin; total drug concentration
Protocol: (§2) The inoculum was prepared by making a direct suspension of isolated colonies (selected from an 18-24 hour Mueller-Hinton agar plate) adjusted to the 0.5 McFarland standard. […] The assays were performed in duplicate. […] In cases where the duplicate values varied by less than 2-fold, the lower of the two values is reported. If a variation of greater than 2-fold was observed, the assay was considered non-valid. Several of the compounds were subjected to multiple tests, and where this is the case, the MIC reflects the modal value obtained.
(§3) MIC values (microgram/mL) refer to the total drug concentration (i.e. test agent plus Rifampicin).

P. aeruginosa [11] = assay: MIC in 1:1 (wt:wt) combination with Rifampicin; format: cell-based, Pseudomonas aeruginosa; details: 1:1 (wt:wt) with Rifampicin, total drug concentration
Protocol: as §2, §3

[12] = system: Acinetobacter baumannii NCTC 13301; details: mouse thigh, 16 h model
E. coli [13] = assay: MIC in 1:1 (wt:wt) combination with Rifampicin; format: cell-based, Escherichia coli; details: 1:1 (wt:wt) with Rifampicin, total drug concentration
Protocol: as §2, §3

K. pneumoniae [14] = assay: MIC in 1:1 (wt:wt) combination with Rifampicin; format: cell-based, Klebsiella pneumoniae; details: 1:1 (wt:wt) with Rifampicin, total drug concentration
Protocol: as §2, §3

HK-2 cell line = assay: In vitro renal cell toxicity assay (resazurin reduction)
Protocol: MICs were determined as described herein. HK-2 cell IC50 values were determined as described herein. Values are reported relative to Polymyxin B.

[15] = mouse lungs, P. aeruginosa ATCC 27853, SC at 2, 6 and 10 h post-infection, 16 h infection model, 17.2 mg/kg/dose free base

Compound | MIC, E. coli ATCC 25922 (E. coli [1]) | MIC, E. coli NCTC 13441 (E. coli [1]) | MIC, P. aeruginosa ATCC 27853 (P. aeruginosa [2]) | MIC, P. aeruginosa CCUG 59347 (P. aeruginosa [2]) | MIC E. coli 058 [3] | MIC E. coli 059 [3] | MIC E. coli 060 [3] | MIC E. coli 061 [3] | MIC A. baumannii 053 [4] | MIC A. baumannii 056 [4] | MIC A. baumannii 068 [4] | MIC A. baumannii 070 [4] | Mean log10 CFU reduction vs. control [5, 15] | MIC P. aeruginosa 065 [6] | MIC P. aeruginosa 066 [6] | MIC P. aeruginosa 067 [6] | MIC K. pneumoniae 062 [7] | MIC K. pneumoniae 063 [7] | MIC K. pneumoniae 064 [7] | MIC K. pneumoniae 655 [7] | other results
3(S)-3-aminomethyl-5- methyl hexanoyl L- Thr-L-Dap-polymyxin B heptapeptide [Example D42] | 0.25 micrograms/mL | 0.25 micrograms/mL | 0.25 micrograms/mL | 0.5 micrograms/mL | 8 micrograms/mL | 16 micrograms/mL | 16 micrograms/mL | 32 micrograms/mL | >256 micrograms/mL | 256 micrograms/mL | 16 micrograms/mL | 128 micrograms/mL | 5.34 log10 CFU | 4 micrograms/mL | 32 micrograms/mL | >256 micrograms/mL | >256 micrograms/mL | 64 micrograms/mL | 16 micrograms/mL | 64 micrograms/mL | MIC, K. pneumoniae ATCC 4352 (K. pneumoniae [8]): 0.125 micrograms/mL; MIC, K. pneumoniae ATCC BAA-2146 (K. pneumoniae [8]): 0.5 micrograms/mL; MIC, A. baumannii ATCC BAA-747 (A. baumannii [9]): 0.25 micrograms/mL; MIC, A. baumannii NCTC 13424 (A. baumannii [9]): 0.5 micrograms/mL
(trans-5-(2- methylpropyl) piperidine)-3-carbonyl polymyxin B nonapeptide [Example D50] | 0.06 micrograms/mL | 0.06 micrograms/mL | 0.5 micrograms/mL | 1 micrograms/mL | 4 micrograms/mL | 8 micrograms/mL | 4 micrograms/mL | 8 micrograms/mL | 128 micrograms/mL | 32 micrograms/mL | 8 micrograms/mL | 16 micrograms/mL | 5.29 log10 CFU | 6 micrograms/mL | 4 micrograms/mL | >256 micrograms/mL | 64 micrograms/mL | 16 micrograms/mL | 4 micrograms/mL | 16 micrograms/mL | MIC in 1:1 combination with rifampicin, A. baumannii 053 (A. baumannii [10]): ≤0.5 microgram/mL; MIC in 1:1 combination with rifampicin, P. aeruginosa 063 (P. aeruginosa [11]; P. aeruginosa 063): 32 microgram/mL; MIC in 1:1 combination with rifampicin, P. aeruginosa 068 (P. aeruginosa [11]; P. aeruginosa 068): 1 microgram/mL; Mean log10 CFU reduction vs. control ([12]; 0.215 mg/kg/dose free base SC at 2, 6 and 10 h post-infection): 0.69 log10 CFU; Mean log10 CFU reduction vs. control ([12]; 0.86 mg/kg/dose free base SC at 2, 6 and 10 h post-infection): 4.74 log10 CFU; Mean log10 CFU reduction vs. control ([12]; 2.6 mg/kg/dose free base SC at 2, 6 and 10 h post-infection): 5.05 log10 CFU; Mean log10 CFU reduction vs. control ([12]; 8.6 mg/kg/dose free base SC at 2, 6 and 10 h post-infection): 5.79 log10 CFU; Mean log10 CFU reduction vs. control ([12]; 17.2 mg/kg/dose free base SC at 2, 6 and 10 h post-infection): 5.69 log10 CFU; MIC in 1:1 combination with rifampicin, E. coli 059 (E. coli [13]; E. coli 059): ≤0.5 microgram/mL; MIC in 1:1 combination with rifampicin, E. coli 060 (E. coli [13]; E. coli 060): ≤0.5 microgram/mL; MIC in 1:1 combination with rifampicin, E. coli ATCC 25922 (E. coli [13]; E. coli ATCC 25922): ≤0.5 microgram/mL; MIC in 1:1 combination with rifampicin, K. pneumoniae 062 (K. pneumoniae [14]; K. pneumoniae 062): 1 microgram/mL; MIC in 1:1 combination with rifampicin, K. pneumoniae CCUG 59348 (K. pneumoniae [14]; K. pneumoniae CCUG 59348): ≤0.5 microgram/mL; MIC, K. pneumoniae ATCC 4352 (K. pneumoniae [8]): 0.06 micrograms/mL; MIC, K. pneumoniae ATCC BAA-2146 (K. pneumoniae [8]): 0.125 micrograms/mL; MIC, A. baumannii ATCC BAA-747 (A. baumannii [9]): 0.25 micrograms/mL; MIC, A. baumannii NCTC 13424 (A. baumannii [9]): 0.25 micrograms/mL
CC(C)C[C@@H]1NC(=O)[C@@H](Cc2ccccc2)NC(=O)[C@H](CCN)NC(=O)[C@@H](NC(=O)[C@H](CCN)NC(=O)[C@@H](NC(=O)[C@@H]2CNCCN2CC(C)C)[C@H](C)O)CCNC(=O)[C@H]([C@@H](C)O)NC(=O)[C@H](CCN)NC(=O)[C@H](CCN)NC1=O [Example D36, (S)-1-(2-methylpropyl)-piperazine-2-carbonyl polymyxin B nonapeptide] (X2-[aThr][Dab][Dab][Dab][dF]L[Dab][Dab]T; lactam 3-C) | – | – | – | – | – | – | – | – | – | – | – | – | – | – | – | – | – | – | – | – | HK-2 IC50 rel to PMB (HK-2 cell line): 4.5; Mean log10 CFU reduction vs. control ([5]; ATCC 27853, in vivo, sc, 17.2 mg/kg, 10 h): 5.30 log10 CFU; MIC (K. pneumoniae [8]): 0.25 mg/L (≈ 0.221 µM)
